Legend:
Assay in all cases: relative viability (nuclei count vs DMSO), 5 days (fraction); higher = more cells survive
RU-SKI 43 + Alpelisib = compound: CC[C@@H](C)CNCC(=O)N1CCC2=C([C@@H]1COC3=CC=CC(=C3)C)C=CS2 [RU-SKI 43] + Cc1nc(NC(=O)N2CCC[C@H]2C(N)=O)sc1-c1ccnc(C(C)(C)C(F)(F)F)c1 [Alpelisib] (partner 2 µM)
Method in brief: (§1)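 One day after seeding in 1536-well plates, lung cancer cell lines were dosed by pin tool. Dosing was either single-drug or a fixed anchor-drug dose plus five library-drug doses (not always all listed) in √10 steps. After 5 days, nuclei were stained in one fix-and-stain step and counted on 4× images, and relative viability is the nuclei count of treated wells over that of vehicle wells, given as the median of duplicate plates.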

Irinotecan + Alpelisib = compound: CCc1c2c(nc3ccc(OC(=O)N4CCC(N5CCCCC5)CC4)cc13)-c1cc3c(c(=O)n1C2)COC(=O)[C@]3(O)CC [Irinotecan] + Cc1nc(NC(=O)N2CCC[C@H]2C(N)=O)sc1-c1ccnc(C(C)(C)C(F)(F)F)c1 [Alpelisib] (partner 2 µM)
Method in brief: as §1

MK-8033 + Alpelisib = compound: Cn1cc(-c2cnc3ccc4ccc(CS(=O)(=O)NCc5ccccn5)cc4c(=O)c3c2)cn1 [MK-8033] + Cc1nc(NC(=O)N2CCC[C@H]2C(N)=O)sc1-c1ccnc(C(C)(C)C(F)(F)F)c1 [Alpelisib] (partner 2 µM)
Method in brief: as §1

Irinotecan + Crizotinib = compound: CCc1c2c(nc3ccc(OC(=O)N4CCC(N5CCCCC5)CC4)cc13)-c1cc3c(c(=O)n1C2)COC(=O)[C@]3(O)CC [Irinotecan] + C[C@@H](Oc1cc(-c2cnn(C3CCNCC3)c2)cnc1N)c1c(Cl)ccc(F)c1Cl [Crizotinib] (partner 1 µM)
Method in brief: as §1

Cell Line	relative viability (RU-SKI 43 + Alpelisib; first compound 0.1 µM)	relative viability (RU-SKI 43 + Alpelisib; first compound 0.3162 µM)	relative viability (RU-SKI 43 + Alpelisib; first compound 1 µM)	relative viability (RU-SKI 43 + Alpelisib; first compound 3.162 µM)	relative viability (RU-SKI 43 + Alpelisib; first compound 10 µM)	relative viability (Irinotecan + Alpelisib; first compound 0.6325 µM)	relative viability (Irinotecan + Alpelisib; first compound 2 µM)	relative viability (Irinotecan + Alpelisib; first compound 6.325 µM)	relative viability (Irinotecan + Alpelisib; first compound 20 µM)	relative viability (MK-8033 + Alpelisib; first compound 0.02 µM)	relative viability (MK-8033 + Alpelisib; first compound 0.06325 µM)	relative viability (MK-8033 + Alpelisib; first compound 0.2 µM)	relative viability (MK-8033 + Alpelisib; first compound 2 µM)	relative viability (Irinotecan + Crizotinib; first compound 0.6325 µM)	relative viability (Irinotecan + Crizotinib; first compound 2 µM)	relative viability (Irinotecan + Crizotinib; first compound 6.325 µM)	relative viability (Irinotecan + Crizotinib; first compound 20 µM)	relative viability (MK-8033 + Alpelisib; first compound 0.6325 µM)
HCC-78	0.349	0.325	0.378	0.436	0.29	0.38	0.248	0.195	0.211	0.271	0.293	0.267	0.357	0.353	0.312	0.222	0.181	
HCC-366	0.439	0.53	0.438	0.572	0.355	0.404	0.187	0.0425	0.0448	0.409	0.435	0.325	0.325	0.274	0.132	0.0524	0.0502	0.376
HCC-827	0.92	1.06	1.03	1.01	0.965	0.522	0.252	0.203	0.233	1.01		1.07	0.91	0.487	0.287	0.282	0.191	0.908
HOP-62	0.978	0.934	1.26	1.09	1.01	0.244	0.171	0.158	0.129	0.987	0.75	1.05	0.938	0.211	0.108	0.136	0.159	0.956
IA-LM	1.02	0.795	0.902	0.91	0.694	0.614	0.408	0.189	0.0631	0.787	0.536	0.723	0.729	0.774	0.375	0.195	0.103	0.736
LC-2-ad	0.836	1.02	0.932	0.924	0.779	0.634	0.283	0.155	0.17	0.888	0.864	0.825	0.849	0.359	0.314	0.258	0.186	0.823
LCLC-97TM1	0.215		0.206	0.241	0.234	0.105	0.165	0.154	0.224	0.199	0.234	0.205	0.235	0.107	0.208	0.185	0.239	0.207
LCLC-103H	0.941	1.06	1.05	1.14	0.91	0.812	0.345	0.33	0.368	1.07	0.872	0.94	0.959	0.834	0.379	0.397	0.621	0.942
LK-2	1.27	1.41	1.18		1.24	1.17	1.4	0.487	0.259	1.22	1.04	1.02	1	0.206	0.248	0.303	0.301	1.17
LOU-NH91	0.72	0.738	0.711	0.681	0.7	0.663	0.596	0.422	0.301	0.727		0.69	0.699	0.718	0.658	0.368	0.36	0.702
LU99A	0.526	0.558	0.5	0.578	0.456	0.219	0.23	0.225	0.219	0.629	0.489	0.523	0.412	0.281	0.286	0.251	0.229	0.464
LXF-289	1.02	0.96	1.1	1.13	0.963	0.994	0.504	0.273	0.214	1.08	0.984	0.976	0.998	0.726	0.549	0.247	0.208	0.994
NCI-H23	0.648	0.796	0.81	0.697	0.628	0.519	0.421	0.246	0.243	0.737	0.639	0.679	0.633	0.514	0.463	0.295	0.348	0.668
NCI-H322M	0.85	0.852	0.833	0.891	0.794	0.576	0.37	0.282	0.395	0.697	0.77	0.801	0.839	0.475	0.405	0.42	0.316	0.792
NCI-H358	0.795	0.894	0.781	0.634	0.858	0.628	0.561	0.311	0.248	0.794	0.755	0.725	0.772	0.497	0.431	0.484	0.139	0.797
NCI-H441	0.87	0.907	0.573	0.68	0.946	0.68	0.513	0.336	0.5	0.853	0.643	0.648	0.67	0.577	0.314	0.257	0.286	0.709
NCI-H1395	1.14	1.38	0.936	1.29	0.836		0.707	0.52	0.246	1.2	1	1.16	1.05					1.13
NCI-H1650														0.918	1.23	0.391	0.179	
NCI-H1793	0.676	0.784	0.764	0.894	0.686		0.668	0.383	0.259	0.608		0.54	0.816					0.603

Source: the supplement of paper PMC10307832
